Measurements as given in article PMC2666046 (Bioorganic & medicinal chemistry letters, 2009).
In brackets after ≈: the same amount, converted by molar mass. Like-named read-outs stand apart in the source and are kept apart here.

How the values were obtained:
[1] = molecular target: B. anthracis NADS (Bacillus anthracis, UniProt Q81RP3); assay: biochemical
[2] = tested on: Bacillus anthracis Sterne; assay: microbe, parasite or virus in culture; type: cell-based; conditions: read-out: B.a. MIC

B. anthracis NADS, sequence (Q81RP3 whole entry, looked up): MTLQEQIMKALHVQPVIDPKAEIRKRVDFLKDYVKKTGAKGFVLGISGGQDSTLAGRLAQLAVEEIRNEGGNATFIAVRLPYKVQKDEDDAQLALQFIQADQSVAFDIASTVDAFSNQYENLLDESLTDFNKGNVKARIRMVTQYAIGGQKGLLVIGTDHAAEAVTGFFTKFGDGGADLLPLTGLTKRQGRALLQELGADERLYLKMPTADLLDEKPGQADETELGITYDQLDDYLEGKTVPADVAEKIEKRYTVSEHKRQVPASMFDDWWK

| SMILES | IC50 [1] [µM] | MIC [2] [µM] | IC50 ([1]; read-out: NADs IC50) [µM] |
| --- | --- | --- | --- |
| O=[N+]([O-])c1ccc(-c2cnc(N/N=C/c3cccc([N+](=O)[O-])c3)nc2)cc1 [Compound 5591] | 160 | – | – |
| CCc1ccc(S(=O)(=O)Nc2c([N+](=O)[O-])ccc3ccccc23)cc1 [Compound 5599] | – | 3.75 (≈ 1.34 µg/mL) | – |
| O=C(Cn1cc(/C=C/c2[nH]c(=O)[nH]c(=O)c2[N+](=O)[O-])c2ccccc21)Nc1ccc(F)cc1 [Compound 5615] | 55.4 | – | 55.4 |
| NC(=O)c1ccc(/N=C/c2cc([N+](=O)[O-])ccc2Cl)cc1 [Compound 5679] | 262 | – | – |
| O=C(Nc1cccc(/N=C/c2cc([N+](=O)[O-])ccc2O)c1)c1ccc(Cl)cc1Cl [Compound 5691] | 106 | – | – |
| COc1ccc(NC(=O)Nc2cccc(NC(=O)Nc3ccc(OC)cc3)c2F)cc1 [Compound 5707] | 253 | – | – |
| N/C(=N\OC(=O)c1ccc(Cl)c(Cl)c1)c1cccc(CSc2ccccn2)c1 [Compound 5775] | 290 | – | – |
